Source: US9856230B2 (University of Sunderland, priority 2012, dated 2018)
Like-named read-outs stand apart in the source and are kept apart here.

What was measured:
[1] = tested on: HPV-16 immortalized keratinocyte cell line (CCD-1106 KERTr); assay: cells; format: cell-based; conditions: Homo sapiens;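 further: growth inhibition read as spectrophotometric formazan colour from mitochondrial dehydrogenase cleavage of MTT, proportional to viable cell number, modelling psoriatic hyperproliferation, lower values mean stronger antiproliferative activity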
Description: The assay is based on the ability of a mitochondrial dehydrogenase enzyme to cleave the tetrazolium rings of the yellow MTT to form dark blue formazan crystals (MTT reaction scheme). These crystals are mostly impermeable to cell membranes and, consequently, they accumulate in healthy viable cells. The addition of detergent solubilizes the cells, which results in the liberation of purple formazan crystals. The number of viable cells is directly proportional to the level of purple formazan produced. This colour change can be measured by a spectrophotometer enabling quantification of changes in cellular proliferation. Compound activity measured by the MTT assay (or other proliferation related assay) may be given as a GI50 value.
A human papilloma virus-16 (HPV-16) immortalized keratinocyte cell line (CCD-1106 KERTr) was used in the MTT cell viability assay.
Antiproliferative activity is indicated by the MTT GI50 (μM), where a lower value indicates higher activity.

[2] = biological target: T1, Trx system (thioredoxin/thioredoxin reductase) (Homo sapiens, UniProt Q16881); assay: Thioredoxin/thioredoxin reductase insulin reduction assay; format: biochemical; conditions: for inhibition at 500 µM: compound at 500 μM, read-out: Inhib. (%) Trx Syst. at 500 μM
T1 sequence (Q16881 151-649 limits assumed): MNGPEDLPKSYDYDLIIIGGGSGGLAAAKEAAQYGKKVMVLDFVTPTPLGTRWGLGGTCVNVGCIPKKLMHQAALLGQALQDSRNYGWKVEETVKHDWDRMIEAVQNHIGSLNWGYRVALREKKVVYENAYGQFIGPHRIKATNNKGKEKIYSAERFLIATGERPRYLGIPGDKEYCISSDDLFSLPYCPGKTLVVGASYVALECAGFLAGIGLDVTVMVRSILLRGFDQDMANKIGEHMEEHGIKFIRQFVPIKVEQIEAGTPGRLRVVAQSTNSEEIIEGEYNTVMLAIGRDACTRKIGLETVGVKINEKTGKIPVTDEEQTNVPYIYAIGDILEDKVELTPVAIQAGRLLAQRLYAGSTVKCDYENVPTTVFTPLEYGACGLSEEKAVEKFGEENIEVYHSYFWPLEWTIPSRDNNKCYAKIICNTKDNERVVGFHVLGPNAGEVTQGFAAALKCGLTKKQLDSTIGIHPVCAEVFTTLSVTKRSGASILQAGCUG
Description: Thioredoxin/thioredoxin reductase inhibition was measured using the insulin reduction assay (Stevens, M. F. G., Pallis, M., Bradshaw, T. D., Westwell, A. D., Grundy, M., Russell, N, “Induction of apoptosis without redox catastrophe by thioredoxin-inhibitory compounds”, Biochem. Pharmacol. (2003) 66, 1695-1705). […] The first part of the assay involves TrxR reducing oxidized Trx via NADPH. The reduced Trx then reduces disulfide bonds in the insulin, leaving exposed thiol groups, as summarized by the Trx reaction scheme.
The addition of dithionitrobenzoic acid (DTNB) to the free thiol groups of the insulin cleaves the disulfide bond in the DTNB which gives rise to a yellow colour (DTNB reaction scheme). The yellow colour is observed under basic conditions due to the conjugation of electrons between the thiolate anion and the nitro group of thionitrobenzoic acid (TNB). The level of thioredoxin/thioredoxin reductase inhibitory activity is […] proportional to the intensity of the yellow colour.
Addition of DTNB to reduced insulin produces thionitrobenzoic acid (TNB) and a mixed insulin disulfide. DTNB has very little absorbance, but under mild basic conditions TNB forms an anion that gives an intense yellow colour at 412 nm.
Synthesized compounds were tested for thioredoxin/thioredoxin reductase activity using the thioredoxin/thioredoxin reductase insulin assay described above under the heading “Assays”. The compounds were also tested for antiproliferative activity using the MTT assay described above under the heading “Assays”. Theoretical C log P values for the compounds were calculated using ChemDraw. The C log P of a compound is the logarithm of the compound's partition coefficient between n-octanol and water log(coctanol/cwater) and represents a measure of the compound's hydrophilicity and hydrophobicity. […]

[3] = CCD-1106 KERTr keratinocytes, read-out: MTT GI50
[4] = insulin reduction assay, read-out: Trx System IC50

Compound	GI50 [1, 3]	inhibition at 500 µM [2]	IC50 [2, 4]	GI50 ([1]; CCD-1106, read-out: MTT GI50 (μM))	IC50 [2]	IC50 ([1]; CCD-1106, read-out: IC50 in MTT assay (antiproliferative activity))
Cc1ccc(S(=O)(=O)Nc2ccc(NC(=O)c3cccs3)cc2NS(=O)(=O)c2ccc(C)cc2)cc1 [(55), N-(3,4-bis-(toluene-4-sulfonylamino)phenyl)-2-thiophenecarboxamide]	3.3 µM	61.5%	494 µM			
COC(=O)c1ccc(NS(=O)(=O)c2ccc([N+](=O)[O-])cc2)c(NS(=O)(=O)c2ccc([N+](=O)[O-])cc2)c1 [(19a), methyl 3,4-bis-(4-nitrobenzenesulfonylamino)benzoate]		53.3%		11.2 µM	475 µM	
Cc1ccc(S(=O)(=O)Nc2ccc(-c3noc(C(C)C)n3)cc2NS(=O)(=O)c2ccc(C)cc2)cc1 [(21d), 1-(5′-isopropyl-1′,2′,4′-oxadiazol-3-yl)-3,4-bis-(toluene-4-sulfonylamino)benzene]	3.2 µM	13.9%				
CC(C)=CCN(CC=C(C)C)Cc1ccc(NS(=O)(=O)c2ccc(C)cc2)c(NS(=O)(=O)c2ccc(C)cc2)c1 [(31), [3,4-bis-(toluene-4-sulfonylamino)benzyl]bis-(3-methyl-but-2-enyl)amine]	7.9 µM	70%				
Cc1ccc(S(=O)(=O)Nc2ccc(CN)cc2NS(=O)(=O)c2ccc(C)cc2)cc1 [(30), 3,4-bis(toluene-4-sulfonylamino)benzyl amine]	162 µM	98.7%	377 µM			
CCNC(=O)Nc1ccc(NS(=O)(=O)c2ccc(C)cc2)c(NS(=O)(=O)c2ccc(C)cc2)c1 [(33d), ethyl [3,4-bis(toluene-4-sulfonylamino)]phenyl urea]	55.9 µM	88.3%				
Cc1ccc(S(=O)(=O)Nc2ccc(NC(=O)Cn3ccc(=O)[nH]c3=O)cc2NS(=O)(=O)c2ccc(C)cc2)cc1 [(42), N-[3,4-bis-(toluene-4-sulfonylamino)phenyl]-2-(2,4-dioxo-3,4-dihydro-2H-pyrimidin-1-yl)acetamide]	100 µM	70.7%	339 µM			
CCOC(=O)CN(CC(=O)OCC)Cc1ccc(NS(=O)(=O)c2ccc(C)cc2)c(NS(=O)(=O)c2ccc(C)cc2)c1 [(32), ethyl {[3,4-bis-(toluene-4-sulfonylamino)benzyl]-ethoxycarbonylmethyl-amino}acetate]	9 µM	58.1%				
C=CC(=O)Nc1ccc(NS(=O)(=O)c2ccc(C)cc2)c(NS(=O)(=O)c2ccc(C)cc2)c1 [(39), N-[3,4-bis-(toluene-4-sulfonylamino)-phenyl]acrylamide]	18.8 µM	73.9%	156 µM			
Cc1ccc(S(=O)(=O)Nc2ccc(C(=O)NC(C)(C)C)cc2NS(=O)(=O)c2ccc(C)cc2)cc1 [(28), N-tert-butyl-3,4-bis-(toluene-4-sulfonylamino)benzamide]	5.1 µM	10%				
Cc1ccc(S(=O)(=O)Nc2ccc(C(=O)O)cc2NS(=O)(=O)c2ccc(C)cc2)cc1 [(35), 3,4-bis-(toluene-4-sulfonylamino)benzoic acid]	67.3 µM	20%				
Cc1ccc(S(=O)(=O)Nc2ccc(NS(N)(=O)=O)cc2NS(=O)(=O)c2ccc(C)cc2)cc1 [(33c), 3,4-bis(toluene-4-sulfonylamino)phenylsulfamide]	114 µM	38.6%				
COC(=O)c1ccc(NS(=O)(=O)c2ccc(C)cc2)c(NS(=O)(=O)c2ccc(C)cc2)c1 [(12), methyl 3,4-diamino-N,N-bis-(toluene-4-sulfonylamino)benzoate]	4.1 µM	30%	1360 µM			
COC(=O)c1ccc(NS(=O)(=O)c2ccc(Cl)s2)c(NS(=O)(=O)c2ccc(Cl)s2)c1 [(25), methyl 3,4-bis-(5-chloro-thiophene-2-sulfonylamino)benzoate]	1.2 µM	61%				
Cc1ccc(S(=O)(=O)Nc2ccc(C(N)=O)cc2NS(=O)(=O)c2ccc(C)cc2)cc1 [(29), 3,4-bis-(toluene-4-sulfonylamino)benzamide]	104 µM	19.9%				
Cc1ccc(S(=O)(=O)Nc2ccc(NC(=O)Nc3ccccc3)cc2NS(=O)(=O)c2ccc(C)cc2)cc1 [(33e), phenyl [3,4-bis(toluene-4-sulfonylamino)]phenyl urea]	6.2 µM	0%				
Cc1ccc(S(=O)(=O)Nc2ccc(N)cc2NS(=O)(=O)c2ccc(C)cc2)cc1 [(33b), 3,4-bis(toluene-4-sulfonylamino)phenyl amine]	48.9 µM	31.6%				
COC(=O)c1ccc(NS(=O)(=O)c2ccc(Cl)cc2)c(NS(=O)(=O)c2ccc(Cl)cc2)c1 [(27), methyl 3,4-bis-(4-chlorobenzenesulfonylamino)benzoate]	0.64 µM	62.3%	277 µM			
O=C(Nc1ccc(NS(=O)(=O)c2ccc(F)cc2)c(NS(=O)(=O)c2ccc(F)cc2)c1)c1ccco1 [Compound (103)]						36.2 µM
Cc1ccc(S(=O)(=O)Nc2ccc(C(=N)NO)cc2NS(=O)(=O)c2ccc(C)cc2)cc1 [(21c), N-hydroxy-3,4-bis-(toluene-4-sulfonylamino)benzamidine]	108 µM	32.4%				
Cc1ccc(S(=O)(=O)Nc2ccc(CO)cc2NS(=O)(=O)c2ccc(C)cc2)cc1 [(36), (3,4-bis-(toluene-4-sulfonylamino)phenyl)methanol]	19.1 µM	50%				
COC(=O)c1ccc(NS(=O)(=O)c2ccc(OC(F)(F)F)cc2)c(NS(=O)(=O)c2ccc(OC(F)(F)F)cc2)c1 [(19c), methyl 3,4-bis-(4-trifluoromethoxybenzenesulfonylamino)benzoate]	2.2 µM	43.7%	546 µM			
COC(=O)c1ccc(NS(=O)(=O)c2ccc(OC)cc2)c(NS(=O)(=O)c2ccc(OC)cc2)c1 [(19d), methyl 3,4-bis-(4-methoxybenzenesulfonylamino)benzoate]	5.2 µM	14.6%				
Cc1ccc(S(=O)(=O)Nc2ccc(C#N)cc2NS(=O)(=O)c2ccc(C)cc2)cc1 [(21b), 3,4-bis-(toluene-4-sulfonylamino)benzonitrile]	4.7 µM	58.4%				
COC(=O)c1ccc(NS(=O)(=O)c2ccc(N)cc2)c(NS(=O)(=O)c2ccc(N)cc2)c1 [(19e), methyl 3,4-bis-(4-aminobenzenesulfonylamino)benzoate]	> 420 µM	86.7%	386 µM			
Cc1ccc(S(=O)(=O)Nc2ccc(-c3ccc(F)c(C#N)c3)cc2NS(=O)(=O)c2ccc(C)cc2)cc1 [(53), 3′,4′-bis-(toluene-4-sulfonylamino)-4-fluorobiphenyl-3-carbonitrile]	0.156 µM	71.1%	106 µM			
COC(=O)c1ccc(NS(=O)(=O)c2ccc(C(F)(F)F)cc2)c(NS(=O)(=O)c2ccc(C(F)(F)F)cc2)c1 [(19b), methyl 3,4-bis-(4-trifluoromethylbenzenesulfonylamino)benzoate]	5.4 µM	33.4%	429 µM			
Cc1ccc(S(=O)(=O)Nc2ccc(C=O)cc2NS(=O)(=O)c2ccc(C)cc2)cc1 [(37), 3,4-bis-(toluene-4-sulfonylamino)benzaldehyde]	12 µM	81%	374 µM			
